A value given as a limit tells only on which side of the number the result lay.

The text below walks through data of patent US12172990B2 (Constellation Pharmaceuticals, Inc., priority 2018, dated 2024).

In assay [1] the target is human TREX2 (residues M44-A279) (Homo sapiens (Human), UniProt Q9BQ50). As to the kind of experiment: TREX2 Biochemical Assay (fluorescence assay measuring degradation of dsDNA substrate). As to conditions: 2.5 nM TREX2, 60 nM dsDNA substrate, 25 minutes at room temperature. On the procedure:
Degradation of the dsDNA liberates free fluorophore to produce a fluorescent signal. Specifically, 7.5 μL of N-terminally His-Tev tagged human TREX2 (residues M44-A279, expressed in E. coli and purified in house) in reaction buffer (50 mM Tris (pH 7.4), 150 mM NaCl, 2 mM DTT, 0.1 mg/mL BSA, 0.01% (v/v) Tween-20 and 100 mM MgCl2) was added to a 384-well Black ProxiPlate Plus (Perkin Elmer) which already contained compound (150 nL) at varying concentrations as a 10 point dose-response in DMSO. To this was added 7.5 μL of dsDNA substrate (Strand A: 5′ TEX615/GCT AGG CAG 3′; Strand B: 5′ CTG CCT AGC/IAbRQSp (IDT)) in reaction buffer. Final concentrations were 2.5 nM TREX2, 60 nM dsDNA substrate in reaction buffer with 1.0% DMSO (v/v). After 25 minutes at room temperature, reactions were quenched by the addition of 5 μL of stop buffer (same as reaction buffer plus 200 mM EDTA). Final concentrations in the quenched reaction mixture were […] TREX2, 45 nM DNA and 50 mM EDTA in a volume of 20 μL. After a 5-minute incubation at room temperature, plates were read in a laser sourced Envision (Perkin-Elmer), measuring fluorescence at 615 nm following excitation w/570 nm light. IC50 values were calculated by comparing the measured fluorescence at 615 nm ratio relative to control wells pre-quenched w/stop buffer (100% inhibition) and no inhibitor (0% inhibition) controls as using non-linear least square four parameter fits and either Genedata or GraphPad Prism (GraphPad Software, Inc.).

For assay [2], the target named is full length human TREX1 (Homo sapiens (Human), UniProt Q9NSU2). Put plainly: TREX1 Biochemical Assay (fluorescence assay measuring degradation of dsDNA substrate). As to conditions: 150 pM TREX1, 60 nM dsDNA substrate, 25 minutes at room temperature. On the procedure: Degradation of the dsDNA liberates free fluorophore to produce a fluorescent signal. Specifically, 7.5 μL of N-terminally His-Tev tagged full length human TREX1 (expressed in E. coli and purified in house) in reaction buffer (50 mM Tris (pH 7.4), 150 mM NaCl, 2 mM DTT, 0.1 mg/mL BSA, 0.01% (v/v) Tween-20 and 100 mM MgCl2 were added to a 384-well Black ProxiPlate Plus (Perkin Elmer) which already contained compound (150 nL) at varying concentrations as a 10 point dose-response in DMSO. To this was added 7.5 μL of dsDNA substrate (Strand A: 5′ TEX615/GCT AGG CAG 3′; Strand B: 5′ CTG CCT AGC/IAbRQSp (Integrated DNA Technologies)) in reaction buffer. Final concentrations were 150 pM TREX1, 60 nM dsDNA substrate in reaction buffer with 1.0% DMSO (v/v). After 25 minutes at room temperature, reactions were quenched by the addition of 5 μL of stop buffer (same as reaction buffer plus 200 mM EDTA). Final concentrations in the quenched reaction were 112.5 pM TREX1, 45 nM DNA and 50 mM EDTA in a volume of 20 μL. After a 5-minute incubation at room temperature, plates were read in a laser sourced Envision (Perkin-Elmer), measuring fluorescence at 615 nm following excitation w/570 nm light. IC50 values were calculated by comparing the measured fluorescence at 615 nm ratio relative to control wells pre-quenched w/stop buffer (100% inhibition) and no inhibitor (0% inhibition) controls as using non-linear least square four parameter fits and either Genedata or GraphPad Prism (GraphPad Software, Inc.).
Chain of full length human TREX1 (Q9NSU2 whole entry): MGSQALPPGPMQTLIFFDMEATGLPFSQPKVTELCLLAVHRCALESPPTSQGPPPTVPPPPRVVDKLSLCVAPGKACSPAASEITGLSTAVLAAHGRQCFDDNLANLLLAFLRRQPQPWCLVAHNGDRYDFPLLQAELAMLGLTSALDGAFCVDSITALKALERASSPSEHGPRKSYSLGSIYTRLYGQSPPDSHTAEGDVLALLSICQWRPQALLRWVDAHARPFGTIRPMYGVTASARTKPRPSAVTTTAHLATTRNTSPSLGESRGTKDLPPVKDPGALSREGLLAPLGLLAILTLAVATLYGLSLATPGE

Chain of human TREX2 (residues M44-A279) (Q9BQ50 whole entry, the tested form may be a part): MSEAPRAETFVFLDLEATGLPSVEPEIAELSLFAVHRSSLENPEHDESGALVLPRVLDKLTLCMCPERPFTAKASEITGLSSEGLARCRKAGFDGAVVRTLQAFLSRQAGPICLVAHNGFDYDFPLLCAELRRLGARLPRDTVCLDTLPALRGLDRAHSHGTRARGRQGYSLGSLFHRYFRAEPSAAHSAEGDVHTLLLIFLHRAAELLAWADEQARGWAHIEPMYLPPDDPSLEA

For `Cn1c(C2CCCN(C(=O)c3ccccc3Cl)C2)nc(C(=O)Nc2cnoc2)c(O)c1=O` (stereo not drawn) [Example 46, 2-(1-(2-chlorobenzoyl)piperidin-3-yl)-5-hydroxy-N-(isoxazol-4-yl)-1-methyl-6-oxo-1,6-dihydropyrimidine-4-carboxamide], the IC50 – broadly, the concentration at which inhibition is half-maximal – was 10 to 100 µM in assay [1] and 0.1 to 1 µM in assay [2].
With `COc1ccc(C(=O)N2CCCC(c3nc(C(=O)Nc4cnoc4)c(O)c(=O)n3C)C2)cc1` (stereo not drawn) [Example 47, 5-hydroxy-N-(isoxazol-4-yl)-2-(1-(4-methoxybenzoyl)piperidin-3-yl)-1-methyl-6-oxo-1,6-dihydropyrimidine-4-carboxamide], the concentration for half-maximal inhibition (IC50) in assay [1] lay in the range of 1 to 10 µM; in assay [2], 0.1 to 1 µM.
The matching figures for `COc1cccc(C(=O)N2CCCC(c3nc(C(=O)Nc4cnoc4)c(O)c(=O)n3C)C2)c1` (stereo not drawn) [Example 48, 5-hydroxy-N-(isoxazol-4-yl)-2-(1-(3-methoxybenzoyl)piperidin-3-yl)-1-methyl-6-oxo-1,6-dihydropyrimidine-4-carboxamide]: 1 to 10 µM and 0.1 to 1 µM.
For `CN1CCN(c2nc(C(=O)Nc3cnoc3)c(O)c(=O)n2C)CC1` [Example 49, 5-hydroxy-N-(isoxazol-4-yl)-1-methyl-2-(4-methylpiperazin-1-yl)-6-oxo-1,6-dihydropyrimidine-4-carboxamide] the same measures were 10 to 100 µM and 0.1 to 1 µM.
For `Cn1c(C2(Cc3ccccc3)CCCN(C(=O)OC(C)(C)C)C2)nc(C(=O)Nc2cnoc2)c(O)c1=O` (stereo not drawn) [Example 50, tert-butyl 3-benzyl-3-(5-hydroxy-4-(isoxazol-4-ylcarbamoyl)-1-methyl-6-oxo-1,6-dihydropyrimidin-2-yl)piperidine-1-carboxylate] the same measures were 10 to 100 µM and 0.1 to 1 µM.
`Cc1cc(C(=O)O)cc(-c2nc(C(=O)Nc3cnoc3)c(O)c(=O)n2C)c1` [Example 51, 3-(5-hydroxy-4-(isoxazol-4-ylcarbamoyl)-1-methyl-6-oxo-1,6-dihydropyrimidin-2-yl)-5-methylbenzoic acid]: the 50% inhibitory concentration (IC50) in assay [1] lay in the range of 1 to 10 µM; in assay [2] it was 0.1 to 1 µM.
The matching figures for `Cn1c(C2(COCc3ccccc3)CCCN(C(=O)OC(C)(C)C)C2)nc(C(=O)Nc2cnoc2)c(O)c1=O` (stereo not drawn) [Example 52, tert-butyl 3-((benzyloxy)methyl)-3-(5-hydroxy-4-(isoxazol-4-ylcarbamoyl)-1-methyl-6-oxo-1,6-dihydropyrimidin-2-yl)piperidine-1-carboxylate]: 1 to 10 µM and 0.1 to 1 µM.
Turning to `COC(=O)c1cc(C)cc(-c2nc(C(=O)Nc3cnoc3)c(O)c(=O)n2C)c1` [Example 53, methyl 3-(5-hydroxy-4-(isoxazol-4-ylcarbamoyl)-1-methyl-6-oxo-1,6-dihydropyrimidin-2-yl)-5-methylbenzoate], the IC50 in assay [1] lay within 1 to 10 µM; in assay [2], 0.1 to 1 µM.
For `Cc1cc(C(=O)NC2CCN(C)CC2)cc(-c2nc(C(=O)Nc3cnoc3)c(O)c(=O)n2C)c1` [Example 54, 5-hydroxy-N-(isoxazol-4-yl)-1-methyl-2-(3-methyl-5-((1-methylpiperidin-4-yl)carbamoyl)phenyl)-6-oxo-1,6-dihydropyrimidine-4-carboxamide] the same measures were 10 to 100 µM and 0.1 to 1 µM.
For `CNC(=O)c1cc(C)cc(-c2nc(C(=O)Nc3cnoc3)c(O)c(=O)n2C)c1` [Example 55, 5-hydroxy-N-(isoxazol-4-yl)-1-methyl-2-(3-methyl-5-(methylcarbamoyl)phenyl)-6-oxo-1,6-dihydropyrimidine-4-carboxamide], the concentration for half-maximal inhibition (IC50) was 1 to 10 µM in assay [1] and under 0.1 µM in assay [2].
Regarding `Cn1c(C2CCCN(C(=O)C3CCC(=O)NC3)C2)nc(C(=O)Nc2cnoc2)c(O)c1=O` (stereo not drawn) [Example 56, 5-hydroxy-N-(isoxazol-4-yl)-1-methyl-6-oxo-2-(1-(6-oxopiperidine-3-carbonyl)piperidin-3-yl)-1,6-dihydropyrimidine-4-carboxamide], the IC50 in assay [1] is 10 to 100 µM; in assay [2], 0.1 to 1 µM.
With `Cn1c(C2CCCN(S(=O)(=O)c3ccccc3)C2)nc(C(=O)Nc2cnoc2)c(O)c1=O` (stereo not drawn) [Example 57, 5-hydroxy-N-(isoxazol-4-yl)-1-methyl-6-oxo-2-(1-(phenylsulfonyl)piperidin-3-yl)-1,6-dihydropyrimidine-4-carboxamide], the values for the IC50 in assay [1] and in assay [2] were 10 to 100 µM and 0.1 to 1 µM, respectively.
For `Cn1c(C2CCCN(C(=O)c3cncnc3)C2)nc(C(=O)Nc2cnoc2)c(O)c1=O` (stereo not drawn) [Example 58, 5-hydroxy-N-(isoxazol-4-yl)-1-methyl-6-oxo-2-(1-(pyrimidine-5-carbonyl)piperidin-3-yl)-1,6-dihydropyrimidine-4-carboxamide] the same measures were 1 to 10 µM and 0.1 to 1 µM.
Turning to `Cn1c(C2CCCN(C(=O)c3ccc(Cl)cc3)C2)nc(C(=O)Nc2cnoc2)c(O)c1=O` (stereo not drawn) [Example 59, 2-(1-(4-chlorobenzoyl)piperidin-3-yl)-5-hydroxy-N-(isoxazol-4-yl)-1-methyl-6-oxo-1,6-dihydropyrimidine-4-carboxamide], the values for the IC50 in assay [1] and in assay [2] were 1 to 10 µM and 0.1 to 1 µM, respectively.
As for `CN(C)CCCC(=O)N1CCCC(c2nc(C(=O)Nc3cnoc3)c(O)c(=O)n2C)C1` (stereo not drawn) [Example 60, 2-(1-(4-(dimethylamino)butanoyl)piperidin-3-yl)-5-hydroxy-N-(isoxazol-4-yl)-1-methyl-6-oxo-1,6-dihydropyrimidine-4-carboxamide], the concentration for half-maximal inhibition (IC50) in assay [1] lay in the range of 10 to 100 µM; in assay [2] it was 1 to 10 µM.
Take `Cn1c(C2CCCN(C(=O)Cc3ccccc3)C2)nc(C(=O)Nc2cnoc2)c(O)c1=O` (stereo not drawn) [Example 61, 5-hydroxy-N-(isoxazol-4-yl)-1-methyl-6-oxo-2-(1-(2-phenylacetyl)piperidin-3-yl)-1,6-dihydropyrimidine-4-carboxamide]: the IC50 in assay [1] fell in the range of 1 to 10 µM; in assay [2], 0.1 to 1 µM.
For `Cn1c(C2CCCN(C(=O)c3cccnc3)C2)nc(C(=O)Nc2cnoc2)c(O)c1=O` (stereo not drawn) [Example 62, 5-hydroxy-N-(isoxazol-4-yl)-1-methyl-2-(1-nicotinoylpiperidin-3-yl)-6-oxo-1,6-dihydropyrimidine-4-carboxamide] the same measures were 1 to 10 µM and 0.1 to 1 µM.
For `Cn1c(C2CCCN(C(=O)c3ccncc3)C2)nc(C(=O)Nc2cnoc2)c(O)c1=O` (stereo not drawn) [Example 63, 5-hydroxy-2-(1-isonicotinoylpiperidin-3-yl)-N-(isoxazol-4-yl)-1-methyl-6-oxo-1,6-dihydropyrimidine-4-carboxamide] the same measures were 1 to 10 µM and 0.1 to 1 µM.
The matching figures for `CC(=O)N1CCCC(c2nc(C(=O)Nc3cnoc3)c(O)c(=O)n2C)C1` (stereo not drawn) [Example 64, 2-(1-acetylpiperidin-3-yl)-5-hydroxy-N-(isoxazol-4-yl)-1-methyl-6-oxo-1,6-dihydropyrimidine-4-carboxamide]: 10 to 100 µM and 0.1 to 1 µM.
As to `Cn1c(C2CCCN(C(=O)Nc3ccccc3)C2)nc(C(=O)Nc2cnoc2)c(O)c1=O` (stereo not drawn) [Example 65, 5-hydroxy-N-(isoxazol-4-yl)-1-methyl-6-oxo-2-(1-(phenylcarbamoyl)piperidin-3-yl)-1,6-dihydropyrimidine-4-carboxamide], the half-maximal inhibitory concentration (IC50) in assay [1] is 1 to 10 µM; in assay [2], 0.1 to 1 µM.
The matching figures for `Cn1c(-c2ccccc2-c2cccnc2)nc(C(=O)Nc2cnoc2)c(O)c1=O` [Example 66, 5-hydroxy-N-(isoxazol-4-yl)-1-methyl-6-oxo-2-(2-(pyridin-3-yl)phenyl)-1,6-dihydropyrimidine-4-carboxamide]: 10 to 100 µM and 0.1 to 1 µM.
